# “Also recorded” adds a separate entry of the source.
# Assays:
# [1] = tested on: cardiac structural and hypertrophy-associated genes (Col1, Col3, ANP, BNP, SERCA2, alpha- and beta-MHC); experiment: Quantitative realtime PCR of cardiac structural and hypertrophy-associated genes in left ventricular tissue after TAC (Example 7); assay type: in vivo, mice; details: mRNA, 21 days after TAC
# Procedure: In parallel samples from the experiment described in Example 4, the expression of a group of cardiac structural and hypertrophy-associated genes were quantified. Total RNA was extracted from left ventricular tissue using TRIzol Reagent (Invitrogen, Carlsbad, Calif.). cDNA was amplified using TaqMan Universal PCR master mix reagent (Applied Biosystems, Foster City, Calif.) under the following conditions: 2 min at 50° C., 10 min at 95° C., 40 cycles: 15 s at 95° C. and 1 min at 60° C. in an ABI 7900HT thermocycler. mRNA expression levels were normalized to those of the internal reference 18S rRNA. All samples were run in duplicates. The following primer sets were used: ANP, BNP, SERCA, MHC, and 18S. Data was analyzed using software RQ manager 1.2 from Applied Biosystems.
# GATA4 = GATA4 acetylation in myocardial lysates, immunoprecipitation/Western (Example 9); assay type: in vivo; details: TAC-operated mice, same conditions
# Procedure: (§1) Acetyl-MEF2 and acetyl-GATA4 were determined as described in Example 9 in myocardial lysates of TAC- or sham-operated mice treated with the indicated doses of 8MI, or its vehicle (0), as indicated. […] MEF2 acetylation is increased by TAC and reduced by 8MI. Myocardial lysates were immunoprecipitated with either anti-pan MEF2 or GATA4 antibodies, and probed with antibodies against MEF2, GATA4 or acetyl-lysine (control). The quantified data shown in FIG. 9 is from 3 mice per group and normalized to total acetyl-lysine (western blots are not shown).
# (§2) MEF2 acetylation was determined in myocardial tissue from sham- and TAC-operated mice in the presence of vehicle or 8MI, under the experimental conditions described in Example 4. Protein samples were collected in RIPA (Sigma). […] of protein samples were incubated with 5 μg of acetyl lysine or GATA4 antibodies (Upstate, Charlottesville, Va.) or MEF2 antibody (Santa Cruz Biotechnology, Santa Cruz, Calif.) (5 μg). The immune-complexes were captured using TrueBlot sepharose beads and subjected to Western analysis. The immune complexes were resolved on SDS-PAGE and transferred to nitrocellulose membranes. Membranes were blocked with 5% milk in 0.5% TBS-T for 1 hour at room temperature followed by incubation in primary antibody at appropriate dilutions overnight. […]
# [2] = tested on: cardiac function after TAC in mice; experiment: Echocardiography of cardiac function 21 days post TAC (Example 8); assay type: in vivo
# Procedure: (§3) Masson's Trichrome was used to visualize cardiac four-chamber anatomy. Paraffin embedded sections were used for staining (FIG. 5B). Representative wheat germ agglutinin (WGA)-stained sections of myocardium from the mice were prepared. For echocardiography (FIG. 5C), mice were placed under anesthesia with 40 mg/kg ketamine and 5 mg/kg xylocaine and secured in a supine position. Mice were evaluated using […] transducer on a Visual Sonics 770 High Resolution Imaging System. B-mode in the short and long axis view of the ventricle was used to evaluate wall motion defects of ventricle and M-mode in long axis view used for the interventricular septal thickness, posterior wall thickness and the left ventricular dimensions in systole and diastole.
# Echocardiographic studies were performed on the mice to examine systolic function under the experimental conditions described in Example 4. […] As expected, TAC induced a 37% fall in ejection fraction at 21 days (sham, 82.4±1.8% vs. TAC, 51.7±5.1%) (FIG. 8A). […] The mice maintained a near-normal ejection fraction of 75.4% at the highest dose of 8MI (FIG. 8A). […] LV end diastolic diameter (LViDd) (FIG. 8D), LV end-systolic diameter (LViDs) (FIG. 8E), LV systolic volume (LV Vs) (FIG. 8F), and LV diastolic volume (LV Vd) (FIG. 8G) were increased by TAC and diminished in the presence of 8MI. […] Heart rate was unaffected in all mice (FIG. 8H).
# MEF2 = MEF2 acetylation in myocardial lysates, immunoprecipitation/Western (Example 9); assay type: in vivo, mice
# Procedure: as §1, §2
# [3] = tested on: cardiac hypertrophy induced by TAC in C57/BL/6 mice; experiment: TAC 21 days: cardiac mass, geometry, wall thickness, myocyte size (Example 4); assay type: in vivo; details: 21 days after TAC
# Procedure: The effects of 8MI on hypertrophy in a model of moderate pressure overload were tested further (FIGS. 5A-5E). 8MI or its vehicle (DMSO) was administered over a range of concentrations immediately prior to and for 21 days following transverse aortic coarctation (TAC). All experiments were performed on 2-3 month old wild type C57/BL/6 mice. Cardiac hypertrophy was induced by TAC as described in Wei et. al. 2008. Pressure gradients induced by TAC were evaluated postoperatively by pulsed-wave Doppler echocardiography to confirm equivalent gradients in all animals (45±5 mmHg). 8MI was delivered via tail vein injection one day prior to surgical intervention and then daily for 21 days. Blood samples were obtained at sacrifice on day 21 after surgery, and serum was frozen at […] until analysis
# as §3
# Hematoxylin and Eosin (HE) and FITC conjugated WGA (from Invitrogen) were used to evaluate myocardial cell size (FIGS. 5D and 5E). The sizes of cells from at least 4 myocardial sections from 3 mice per condition were measured (FIG. 5E). WGA samples were counterstained with DAPI and images were merged from the DAPI and FITC channels.
# [4] = 21 days post TAC, depressed by TAC
# [5] = 21 days post TAC, increased by TAC
smiles,measurement,setting,value
Nc1ccccc1NC(=O)CCCCCC(=O)Nc1cccc(Br)c1 [8MI],stress-induced expression of B-type natriuretic peptide (BNP),[1],markedly attenuated
same,stress-induced expression of Collagen Type 1 (Col1),[1],markedly attenuated
same,stress-induced expression of Collagen Type 3 (Col3),[1],markedly attenuated
same,stress-induced expression of SERCA2,[1],markedly attenuated
same,stress-induced expression of alpha-myosin heavy chain,[1],markedly attenuated
same,stress-induced expression of atrial natriuretic peptide (ANP),[1],markedly attenuated
same,stress-induced expression of beta-myosin heavy chain,[1],markedly attenuated
same,total and Ac-GATA4 levels,GATA4,no significant change
same,systolic function / cardiac function under sustained pressure overload,"[2]; 21 days post TAC, 5, 20 and 40 mg/kg, dose-dependent",preserved systolic function; also recorded: preservation of cardiac function
same,ejection fraction,"[2]; 21 days post TAC, highest dose of 8MI (sham 82.4±1.8%, TAC 51.7±5.1%)",75.4%
same,fractional shortening (FS),[2]; [4],similarly restored
same,stroke volume,[2]; [4],similarly restored
same,LV end diastolic diameter (LViDd),[2]; [5],diminished
same,LV end-systolic diameter (LViDs),[2]; [5],diminished
same,LV systolic volume (LV Vs),[2]; [5],diminished
same,heart rate,"[2]; all mice, 21 days",unaffected
same,cardiac function in sham-operated mice,[2]; sham-operated mice treated with 8MI,normal cardiac function
same,TAC-induced acetyl-MEF2 content,"MEF2; TAC-operated mice, increasing doses of 8MI",reduced the acetyl-MEF2 content to level at or below those of the sham-operated mice; also recorded: reduced
same,"total acetyl-MEF2 content, basal","MEF2; sham-operated mice, maximum dose (40 mg/kg) versus vehicle (DMSO), 40 mg/kg",not different; also recorded: does not reduce acetyl-MEF2 levels
same,effect on heart weight in comparison to previously published results for TSA,[3],significantly superior effect
same,reduction of myocyte cross sectional area in comparison to previously published results for TSA,[3],significantly superior effect
same,HW/TL at the highest dose,[3]; 40 mg/kg,normal levels
same,TAC-induced increase of myocyte cross-sectional area / myocyte size,[3]; WGA-stained sections,effectively eliminated this 2.2-fold increase; also recorded: normalization of myocyte size
same,remodeling of the myocardium (four-chamber sections),[3]; dose-dependent,prevented remodeling of the myocardium; also recorded: normalization of cardiac geometry
same,increase of echocardiographic wall thickness,[3]; highest dose of 8MI (vehicle 35.9%±1.0%),6.9%±1.4%
same,echocardiographic posterior wall thickness,[3]; indicated doses,normalization of echocardiographic posterior wall thickness
same,TAC-induced increase of heart weight (HW/TL),"[3]; indicated doses up to 40 mg/kg, tail vein daily",blunted the increase of heart weight in a dose-dependent manner; also recorded: normalization of cardiac mass
